Target: PCNA (Homo sapiens, UniProt P12004)
Assay: Fixation of live cells labeled with the cell-permeable PIP
Type: cell-based
Details: PCNA expressing cells labeled live, then 3.7% formaldehyde

Sequence of PCNA (P12004 whole entry): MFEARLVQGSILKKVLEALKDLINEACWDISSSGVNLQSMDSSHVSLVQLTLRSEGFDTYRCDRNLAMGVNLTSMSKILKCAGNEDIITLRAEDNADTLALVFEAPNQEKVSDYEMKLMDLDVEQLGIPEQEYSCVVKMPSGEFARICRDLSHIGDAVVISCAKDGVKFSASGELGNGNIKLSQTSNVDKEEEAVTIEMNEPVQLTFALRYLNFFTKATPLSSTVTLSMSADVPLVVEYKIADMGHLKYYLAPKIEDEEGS

RRRQRRKKRG-C C-SAVLQKKITDYFHPKKG-EDA-TAMRA (disulfide) [TAT(-SS-)PL-R]
Labeling of repair sites after fixation of live labeled cells: still marks repair sites

— PMC4615156 (Nucleus, 2014)
